Measured values published in ChEMBL document CHEMBL1268971, “4,5-Dihydro-1H-pyrazolo[4,3-h]quinazolines as potent and selective Polo-like kinase 1 (PLK1) inhibitors” (Bioorg Med Chem Lett, 2010).
In brackets after ≈: the same amount, converted by molar mass. Activity calls are given as the source filed them. The rule behind the calls is not given here.

How the values were obtained:
A2780 [1] = experiment: Induction of cell cycle arrest in human A2780 cells assessed as accumulation at G2/M phase at 0.005 to 0.5 uM after 24 hrs; type: functional, cell-based
[2] = biological target: Serine/threonine-protein kinase PLK2 (Homo sapiens, UniProt Q9NYY3); experiment: Inhibition of PLK2
Chain of Serine/threonine-protein kinase PLK2 (Q9NYY3 whole entry): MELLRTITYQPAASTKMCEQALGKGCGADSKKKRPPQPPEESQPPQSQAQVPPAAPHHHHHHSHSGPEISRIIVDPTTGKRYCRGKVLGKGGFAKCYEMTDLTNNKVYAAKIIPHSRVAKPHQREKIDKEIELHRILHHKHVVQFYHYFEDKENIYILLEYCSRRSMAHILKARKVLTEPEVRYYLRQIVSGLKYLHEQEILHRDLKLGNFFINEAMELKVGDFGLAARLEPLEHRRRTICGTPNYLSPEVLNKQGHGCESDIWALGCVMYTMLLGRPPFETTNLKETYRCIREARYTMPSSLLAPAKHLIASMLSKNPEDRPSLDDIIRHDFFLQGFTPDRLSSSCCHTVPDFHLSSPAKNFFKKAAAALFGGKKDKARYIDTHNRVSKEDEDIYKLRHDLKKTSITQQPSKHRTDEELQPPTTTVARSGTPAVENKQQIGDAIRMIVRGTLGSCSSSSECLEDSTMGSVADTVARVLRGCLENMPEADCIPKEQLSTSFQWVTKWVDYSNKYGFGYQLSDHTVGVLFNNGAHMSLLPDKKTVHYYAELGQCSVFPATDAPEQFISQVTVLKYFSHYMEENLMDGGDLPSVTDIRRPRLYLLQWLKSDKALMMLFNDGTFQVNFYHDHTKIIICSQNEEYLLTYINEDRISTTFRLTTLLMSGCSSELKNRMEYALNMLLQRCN

[3] = Solubility of the compound at pH 7; type: physicochemical; details: buffer
[4] = biological target: Cyclin-dependent kinase 2/cyclin A (Homo sapiens, UniProt P24941); experiment: Inhibition of CDK2/Cyclin A; type: protein-complex assay
[5] = Inhibition of PDGFR
[6] = Terminal half life in CD1 mouse at 10 mg/kg, iv administered as single dose by LC/MS/MS analysis; type: ADME, organism-based; parameters: dose 10 mg/kg, route intravenous; details: in vivo, read-out: beta t1/2 (converted)
[7] = AUC (0 to infinity) in CD1 mouse at 10 mg/kg, po administered as single dose by LC/MS/MS analysis; type: ADME, organism-based; parameters: time infinity, dose 10 mg/kg, route oral; details: plasma
LoVo = experiment: Antiproliferative activity against human LoVo cells after 72 hrs by CellTiter-Glo assay; type: functional, cell-based
HCT-116 [8] = experiment: Antiproliferative activity against human HCT116 cells after 72 hrs by CellTiter-Glo assay; type: functional, cell-based; details: HCT-116, 72 h
MIA PaCa-2 = experiment: Antiproliferative activity against human MIAPaCa2 cells after 72 hrs by CellTiter-Glo assay; type: functional, cell-based; details: MIA PaCa-2, 72 h
A2780 [9] = experiment: Antiproliferative activity against […] human A2780 cells after 72 hrs by CellTiter-Glo assay; type: functional, cell-based; details: A2780, 72 h
[10] = Antiproliferative activity against human A2780/E6 cells after 72 hrs by CellTiter-Glo assay; type: functional, cell-based; details: A2780/E6, 72 h
NCI-H1993 = experiment: Antiproliferative activity against human NCI-H1993 cells after 72 hrs by CellTiter-Glo assay; type: functional, cell-based; details: NCI-H1993, 72 h
HCT-116 [11] = experiment: Antitumor against human HCT116 cells xenografted in CD1 mouse assessed as tumor growth inhibition at 30 mg/kg, iv BID administered on day 1, 2 post-implantation in weekly schedule of 3 cycles measured on day 32; type: functional; details: read-out: TGI
U2OS [12] = experiment: Induction of cell cycle arrest in human U2OS cells assessed as accumulation of cyclin B1-positive cells at 320 nM after 24 hrs by array scan assay
U2OS [13] = experiment: Induction of cell cycle arrest in human U2OS cells assessed as accumulation of pSer10 histone H3-positive cells at 260 nM after 24 hrs by array scan assay

Question: Which Activity (A2780 [1]) does the source give for `CN1CCN(c2ccc(OC(F)(F)F)c(Nc3ncc4c(n3)-c3c(c(C(N)=O)nn3C)CC4)c2)CC1` here?
Answer: Active

Question: What about the IC50 [2] of the same molecule?
Answer: 3520 nM

Question: And the solubility [3]?
Answer: 72 µM (≈ 36.2 µg/mL)

Question: And the IC50 [4]?
Answer: > 10000 nM

Question: And the IC50 [5]?
Answer: > 10000 nM

Question: What about the half-life [6] of the same molecule?
Answer: 55.2 min

Question: What about the AUC(0-inf) [7] of the same molecule?
Answer: 1.04 µM·h

Question: What about the IC50 (LoVo) of the same molecule?
Answer: 7 nM

Question: What about the IC50 (HCT-116 [8]) of the same molecule?
Answer: 41 nM

Question: What about the IC50 (MIA PaCa-2) of the same molecule?
Answer: 52 nM

Question: And the IC50 (A2780 [9])?
Answer: 21 nM

Question: And the IC50 [10]?
Answer: 5 nM

Question: What about the IC50 (NCI-H1993) of the same molecule?
Answer: 195 nM

Question: What about the inhibition in vivo at 30 mg/kg (HCT-116 [11]) of the same molecule?
Answer: 81%

Question: What about the Activity (U2OS [12]) of the same molecule?
Answer: 20%

Question: What about the Activity (U2OS [13]) of the same molecule?
Answer: 20%
